In US12410208B2, “(2-acetamidyl)thio-beta-D-galactopyranoside derivatives” (Idorsia Pharmaceuticals Ltd, priority 2020, dated 2025):

Columns and labels:
[1] = target: biotinylated human Gal-3 (hGal-3) (Homo sapiens, UniProt P17931); experiment: Competitive binding assay: biotinylated hGal-3 binding to microplate-adsorbed asialofetuin (ASF), spectrophotometric; settings: Gal-3 inhibition, Table 5; read-out: IC50
How it was run: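 Serially diluted compounds competed with asialofetuin on the plate for biotinylated human Gal-3 during a 3 h incubation at 4° C. Streptavidin-peroxidase with ABTS gave the spectrophotometric signal. IC50 values were averaged over repeat runs.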

[2] = target: human Gal-1 (hGal-1) (Homo sapiens, UniProt P09382); experiment: Competitive binding assay: biotinylated hGal-1 binding to microplate-adsorbed asialofetuin (ASF), spectrophotometric; settings: hGal-1 binding to asialofetuin; Table 15; R and S epimers of selected Examples also listed; read-out: IC50 (Galectin-1 inhibition)
How it was run: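 Spectrophotometric competition readout with ABTS after streptavidin-peroxidase (80 ng/mL, 1 h, 4 °C) detection of bound biotinylated hGal-1.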

human Gal-1 (hGal-1), sequence (P09382 whole entry): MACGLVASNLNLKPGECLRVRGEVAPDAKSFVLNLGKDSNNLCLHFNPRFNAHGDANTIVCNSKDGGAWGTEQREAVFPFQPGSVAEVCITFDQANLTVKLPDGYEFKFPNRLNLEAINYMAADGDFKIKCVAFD
biotinylated human Gal-3 (hGal-3), sequence (P17931 whole entry): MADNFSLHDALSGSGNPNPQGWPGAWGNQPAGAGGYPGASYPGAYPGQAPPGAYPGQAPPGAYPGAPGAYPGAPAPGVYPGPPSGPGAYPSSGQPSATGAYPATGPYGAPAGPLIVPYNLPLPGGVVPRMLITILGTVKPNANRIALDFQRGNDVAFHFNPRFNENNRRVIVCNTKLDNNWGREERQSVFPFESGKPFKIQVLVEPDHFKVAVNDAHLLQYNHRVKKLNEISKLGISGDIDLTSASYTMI

Row | Compound | IC50 [1] | IC50 [2]
1 | O=C(C(S[C@@H]1O[C@H](CO)[C@H](O)[C@H](n2cc(-c3cc(F)c(F)c(F)c3)nn2)[C@H]1O)C1(O)CC(F)(F)C1)N1CCC1 (stereo partly drawn) [Example 2.33.206., 1-(Azetidin-1-yl)-2-(3,3-difluoro-1-hydroxycyclobutyl)-2-(((2S,3R,4S,5R,6R)-3,5-dihydroxy-6-(hydroxymethyl)-4-(4-(3,4,5-trifluorophenyl)-1H-1,2,3-triazol-1-yl)tetrahydro-2H-pyran-2-yl)thio)ethan-1-one] | 580 nM | 1710 nM
2 | CN(CC1CC1)C(=O)[C@H](S[C@@H]1O[C@H](CO)[C@H](O)[C@H](n2cc(-c3cc(F)c(F)c(F)c3)nn2)[C@H]1O)C1(O)CC(F)(F)C1 [Example 2.33.218R., (R)-N-(Cyclopropylmethyl)-2-(3,3-difluoro-1-hydroxycyclobutyl)-2-(((2S,3R,4S,5R,6R)-3,5-dihydroxy-6-(hydroxymethyl)-4-(4-(3,4,5-trifluorophenyl)-1H-1,2,3-triazol-1-yl)tetrahydro-2H-pyran-2-yl)thio)-N-methylacetamide] | 440 nM | 580 nM
3 | CN(CC1CC1)C(=O)[C@@H](S[C@@H]1O[C@H](CO)[C@H](O)[C@H](n2cc(-c3cc(F)c(F)c(F)c3)nn2)[C@H]1O)C1(O)CC(F)(F)C1 [Example 2.33.218S., (S)-N-(Cyclopropylmethyl)-2-(3,3-difluoro-1-hydroxycyclobutyl)-2-(((2S,3R,4S,5R,6R)-3,5-dihydroxy-6-(hydroxymethyl)-4-(4-(3,4,5-trifluorophenyl)-1H-1,2,3-triazol-1-yl)tetrahydro-2H-pyran-2-yl)thio)-N-methylacetamide] | 40 nM | 60 nM
4 | O=C(C(S[C@@H]1O[C@H](CO)[C@H](O)[C@H](n2cc(-c3cc(F)c(F)c(F)c3)nn2)[C@H]1O)C1(O)CCC1)N1CCC1 (stereo partly drawn) [Example 2.34.206., 1-(Azetidin-1-yl)-2-(((2S,3R,4S,5R,6R)-3,5-dihydroxy-6-(hydroxymethyl)-4-(4-(3,4,5-trifluorophenyl)-1H-1,2,3-triazol-1-yl)tetrahydro-2H-pyran-2-yl)thio)-2-(1-hydroxycyclobutyl)ethan-1-one] | 1200 nM | 2710 nM
5 | O=C([C@H](S[C@@H]1O[C@H](CO)[C@H](O)[C@H](n2cc(-c3cc(F)c(F)c(F)c3)nn2)[C@H]1O)C1(O)CCC1)N1CCC1 [Example 2.34.206R., (R)-1-(Azetidin-1-yl)-2-(((2S,3R,4S,5R,6R)-3,5-dihydroxy-6-(hydroxymethyl)-4-(4-(3,4,5-trifluorophenyl)-1H-1,2,3-triazol-1-yl)tetrahydro-2H-pyran-2-yl)thio)-2-(1-hydroxycyclobutyl)ethan-1-one] | 1800 nM | 6910 nM
6 | O=C([C@@H](S[C@@H]1O[C@H](CO)[C@H](O)[C@H](n2cc(-c3cc(F)c(F)c(F)c3)nn2)[C@H]1O)C1(O)CCC1)N1CCC1 [Example 2.34.206S., (S)-1-(Azetidin-1-yl)-2-(((2S,3R,4S,5R,6R)-3,5-dihydroxy-6-(hydroxymethyl)-4-(4-(3,4,5-trifluorophenyl)-1H-1,2,3-triazol-1-yl)tetrahydro-2H-pyran-2-yl)thio)-2-(1-hydroxycyclobutyl)ethan-1-one] | 340 nM | 620 nM
7 | O=C(C(S[C@@H]1O[C@H](CO)[C@H](O)[C@H](n2cc(-c3cc(F)c(F)c(F)c3)nn2)[C@H]1O)C1(O)CCC1)N1CCCCC1 (stereo partly drawn) [Example 2.34.208., 2-(((2S,3R,4S,5R,6R)-3,5-Dihydroxy-6-(hydroxymethyl)-4-(4-(3,4,5-trifluorophenyl)-1H-1,2,3-triazol-1-yl)tetrahydro-2H-pyran-2-yl)thio)-2-(1-hydroxycyclobutyl)-1-(piperidin-1-yl)ethan-1-one] | 380 nM | 520 nM
8 | O=C([C@H](S[C@@H]1O[C@H](CO)[C@H](O)[C@H](n2cc(-c3cc(F)c(F)c(F)c3)nn2)[C@H]1O)C1(O)CCC1)N1CCCCC1 [Example 2.34.208R., (R)-2-(((2S,3R,4S,5R,6R)-3,5-Dihydroxy-6-(hydroxymethyl)-4-(4-(3,4,5-trifluorophenyl)-1H-1,2,3-triazol-1-yl)tetrahydro-2H-pyran-2-yl)thio)-2-(1-hydroxycyclobutyl)-1-(piperidin-1-yl)ethan-1-one] | 3240 nM | 11500 nM
9 | O=C([C@@H](S[C@@H]1O[C@H](CO)[C@H](O)[C@H](n2cc(-c3cc(F)c(F)c(F)c3)nn2)[C@H]1O)C1(O)CCC1)N1CCCCC1 [Example 2.34.208S., (S)-2-(((2S,3R,4S,5R,6R)-3,5-Dihydroxy-6-(hydroxymethyl)-4-(4-(3,4,5-trifluorophenyl)-1H-1,2,3-triazol-1-yl)tetrahydro-2H-pyran-2-yl)thio)-2-(1-hydroxycyclobutyl)-1-(piperidin-1-yl)ethan-1-one] | 140 nM | 140 nM
10 | CN(CC1CC1)C(=O)C(S[C@@H]1O[C@H](CO)[C@H](O)[C@H](n2cc(-c3cc(F)c(F)c(F)c3)nn2)[C@H]1O)C1(O)CCC1 (stereo partly drawn) [Example 2.34.218., N-(Cyclopropylmethyl)-2-(((2S,3R,4S,5R,6R)-3,5-dihydroxy-6-(hydroxymethyl)-4-(4-(3,4,5-trifluorophenyl)-1H-1,2,3-triazol-1-yl)tetrahydro-2H-pyran-2-yl)thio)-2-(1-hydroxycyclobutyl)-N-methylacetamide] | 310 nM | 220 nM
11 | CN(CC1CC1)C(=O)[C@H](S[C@@H]1O[C@H](CO)[C@H](O)[C@H](n2cc(-c3cc(F)c(F)c(F)c3)nn2)[C@H]1O)C1(O)CCC1 [Example 2.34.218R., (R)-N-(Cyclopropylmethyl)-2-(((2S,3R,4S,5R,6R)-3,5-dihydroxy-6-(hydroxymethyl)-4-(4-(3,4,5-trifluorophenyl)-1H-1,2,3-triazol-1-yl)tetrahydro-2H-pyran-2-yl)thio)-2-(1-hydroxycyclobutyl)-N-methylacetamide] | 6080 nM | 20900 nM

Continued, values first:

Row | IC50 [1] | IC50 [2] | Compound
12 | 400 nM | 640 nM | CCN(C)C(=O)C(S[C@@H]1O[C@H](CO)[C@H](O)[C@H](n2cc(-c3cc(F)c(F)c(F)c3)nn2)[C@H]1O)C1(O)CCC1 (stereo partly drawn) [Example 2.34.203., 2-(((2S,3R,4S,5R,6R)-3,5-Dihydroxy-6-(hydroxymethyl)-4-(4-(3,4,5-trifluorophenyl)-1H-1,2,3-triazol-1-yl)tetrahydro-2H-pyran-2-yl)thio)-N-ethyl-2-(1-hydroxycyclobutyl)-N-methylacetamide]
13 | 3580 nM | 28300 nM | CCN(C)C(=O)[C@H](S[C@@H]1O[C@H](CO)[C@H](O)[C@H](n2cc(-c3cc(F)c(F)c(F)c3)nn2)[C@H]1O)C1(O)CCC1 [Example 2.34.203R., (R)-2-(((2S,3R,4S,5R,6R)-3,5-Dihydroxy-6-(hydroxymethyl)-4-(4-(3,4,5-trifluorophenyl)-1H-1,2,3-triazol-1-yl)tetrahydro-2H-pyran-2-yl)thio)-N-ethyl-2-(1-hydroxycyclobutyl)-N-methylacetamide]
14 | 120 nM | 170 nM | CCN(C)C(=O)[C@@H](S[C@@H]1O[C@H](CO)[C@H](O)[C@H](n2cc(-c3cc(F)c(F)c(F)c3)nn2)[C@H]1O)C1(O)CCC1 [Example 2.34.203S., (S)-2-(((2S,3R,4S,5R,6R)-3,5-Dihydroxy-6-(hydroxymethyl)-4-(4-(3,4,5-trifluorophenyl)-1H-1,2,3-triazol-1-yl)tetrahydro-2H-pyran-2-yl)thio)-N-ethyl-2-(1-hydroxycyclobutyl)-N-methylacetamide]
15 | 60 nM | 70 nM | CN(CC1CC1)C(=O)[C@@H](S[C@@H]1O[C@H](CO)[C@H](O)[C@H](n2cc(-c3cc(F)c(F)c(F)c3)nn2)[C@H]1O)C1(O)CCC1 [Example 2.34.218S., (S)-N-(Cyclopropylmethyl)-2-(((2S,3R,4S,5R,6R)-3,5-dihydroxy-6-(hydroxymethyl)-4-(4-(3,4,5-trifluorophenyl)-1H-1,2,3-triazol-1-yl)tetrahydro-2H-pyran-2-yl)thio)-2-(1-hydroxycyclobutyl)-N-methylacetamide]
16 | 260 nM | 640 nM | CN(CC(F)(F)F)C(=O)C(S[C@@H]1O[C@H](CO)[C@H](O)[C@H](n2cc(-c3cc(F)c(F)c(F)c3)nn2)[C@H]1O)C1(O)CCC1 (stereo partly drawn) [Example 2.34.219., 2-(((2S,3R,4S,5R,6R)-3,5-Dihydroxy-6-(hydroxymethyl)-4-(4-(3,4,5-trifluorophenyl)-1H-1,2,3-triazol-1-yl)tetrahydro-2H-pyran-2-yl)thio)-2-(1-hydroxycyclobutyl)-N-methyl-N-(2,2,2-trifluoroethyl)acetamide]
17 | 7840 nM | 33600 nM | CN(CC(F)(F)F)C(=O)[C@H](S[C@@H]1O[C@H](CO)[C@H](O)[C@H](n2cc(-c3cc(F)c(F)c(F)c3)nn2)[C@H]1O)C1(O)CCC1 [Example 2.34.219R., (R)-2-(((2S,3R,4S,5R,6R)-3,5-Dihydroxy-6-(hydroxymethyl)-4-(4-(3,4,5-trifluorophenyl)-1H-1,2,3-triazol-1-yl)tetrahydro-2H-pyran-2-yl)thio)-2-(1-hydroxycyclobutyl)-N-methyl-N-(2,2,2-trifluoroethyl)acetamide]
18 | 110 nM | 120 nM | CN(CC(F)(F)F)C(=O)[C@@H](S[C@@H]1O[C@H](CO)[C@H](O)[C@H](n2cc(-c3cc(F)c(F)c(F)c3)nn2)[C@H]1O)C1(O)CCC1 [Example 2.34.219S., (S)-2-(((2S,3R,4S,5R,6R)-3,5-Dihydroxy-6-(hydroxymethyl)-4-(4-(3,4,5-trifluorophenyl)-1H-1,2,3-triazol-1-yl)tetrahydro-2H-pyran-2-yl)thio)-2-(1-hydroxycyclobutyl)-N-methyl-N-(2,2,2-trifluoroethyl)acetamide]
